From patent US20220409692A1, “Systems Chemico-Pharmacology Drugs and Methods of Use” (The Medical College of Wisconsin, priority 2019, published 2022)

What was measured:
MPO = target: T1, MPO (Homo sapiens, UniProt P05164); test: KYC/AA(n) peptide inhibition of MPO HOCl production (TMB assay) at varied pH; type: biochemical; conditions: regardless of pH
T1 sequence (P05164 49-745): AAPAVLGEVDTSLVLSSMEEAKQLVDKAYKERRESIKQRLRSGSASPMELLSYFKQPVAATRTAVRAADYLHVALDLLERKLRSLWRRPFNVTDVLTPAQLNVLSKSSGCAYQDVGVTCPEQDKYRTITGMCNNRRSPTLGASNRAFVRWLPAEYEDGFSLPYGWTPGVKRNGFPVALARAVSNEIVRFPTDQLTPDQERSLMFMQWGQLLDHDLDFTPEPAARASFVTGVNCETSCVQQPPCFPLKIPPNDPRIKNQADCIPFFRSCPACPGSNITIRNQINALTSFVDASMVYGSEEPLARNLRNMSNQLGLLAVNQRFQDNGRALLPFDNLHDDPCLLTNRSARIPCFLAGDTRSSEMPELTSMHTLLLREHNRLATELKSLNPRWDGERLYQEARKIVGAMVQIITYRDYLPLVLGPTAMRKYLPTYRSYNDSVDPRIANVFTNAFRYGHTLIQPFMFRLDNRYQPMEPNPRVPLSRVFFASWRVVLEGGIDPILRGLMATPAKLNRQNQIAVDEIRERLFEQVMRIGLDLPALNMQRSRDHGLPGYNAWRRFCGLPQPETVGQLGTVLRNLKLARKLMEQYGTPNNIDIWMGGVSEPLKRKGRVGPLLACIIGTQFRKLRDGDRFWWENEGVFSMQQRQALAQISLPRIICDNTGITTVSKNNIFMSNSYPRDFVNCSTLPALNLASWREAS
From the text: Small peptides of generic formula AA(n) (where AA represents different amino acids, and n can be 2-5) are both substrates and inhibitors of MPO (alternatively, inhibitors of EPO). These peptides are […] at the active site of MPO, which subsequently decreases the production of toxic oxidants that includes but not restricted to hypochlorous acid. All MPO activities (i.e., hypochlorous acid production) described herein were quantified by the 3,3′,5,5′-tetramethylbenzidine (TMB) assay. […] The free radical itself may act as an activated species, and is stable enough to react with proximal proteins, peptides, metabolites or small molecules to effect further change. The free radical is not limited to a single target, but may effect change multiple independent targets. In a non-limiting example, the free radical goes on to form a hetero- or homo dimer via an oxidized —S—S— disulfide (or di-Selenium) linkage. Finally, the more interactions between the peptide and active site of MPO that occurs the lower numerical IC50 value of the peptide inhibitor.
KYZ is […] in the presence of MPO, which subsequently decreases the production of hypochlorous acid. All MPO activities (i.e., hypochlorous acid production) were quantified by the 3,3′,5,5′-tetramethylbenzidine (TMB) assay. The tripeptide KXZ, requires amino acid #1 (AA1, K) to be a native amino acid or an artificial amino acid (aa) with a basic side-chain such as an amine functional group (e.g., Lysine (K)). Amino acid #2 (AA2, X) is a native or artificial amino acid that may contain a polar, non-polar, or aromatic amino acid.

HMGB1 = target: T2, HMGB1 (Homo sapiens, UniProt P09429); test: Streptavidin-affinity blot of B-KYC thiylated recombinant HMGB1 and MPO in MPO reaction mixture; type: biochemical; conditions: split sample, DTT 100 mM
T2 sequence (P09429 1-215): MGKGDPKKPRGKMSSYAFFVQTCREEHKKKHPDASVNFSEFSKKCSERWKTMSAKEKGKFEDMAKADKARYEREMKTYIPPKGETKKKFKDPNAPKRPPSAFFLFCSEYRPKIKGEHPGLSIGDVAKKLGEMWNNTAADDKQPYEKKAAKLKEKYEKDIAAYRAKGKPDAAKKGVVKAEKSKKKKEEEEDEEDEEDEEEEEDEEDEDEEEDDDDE
Experimental: FIG. 30. MPO Oxidizes KYC to a KYC Thiyl Radical That Thiylates HMGB1. (A) ESR spectrum of KYC thiyl S°-DMPO generated by an MPO reaction mixture containing MPO (120 nM), H2O2 (50 μM) and KYC (30 μM). (B) Streptavidin-affinity blot of KYC thiylated HMGB1 and MPO in a split sample, one half treated neat and other half treated with DTT (100 mM) to reduce disulfide bonds.
This spectrum is similar to the spectrum of DMPO-S◯-YC generated when the dipeptide YC was added to an MPO reaction mixture containing DMPO [34].
Previously we reported that KYC reduced MPO-dependent oxidative damage because KYC competes with native substrates, such as chloride and nitrite, that are oxidized to “toxic” oxidants. In 2013, we argued that KYC reduced MPO-dependent oxidative damage because the resultant KYC thiyl radical would autoscavenge to prevent radical propagation. […] To determine the radical mechanisms mediating MPO oxidation of KYC and KYC thiylation of HMGB1, we performed two experiments. In the first experiment, we trapped KYC thiyl radicals generated by MPO with DMPO (FIG. 30A), which confirms our conclusions in 2013 [27]. In the second experiment, we added recombinant HMGB1 to PBS containing MPO+H2O2+B-KYC and determined KYC thiylation by streptavidin affinity blotting. […]

RLMVEC = test: KYC thiylation of endothelial cell proteins in RLMVEC cultures; type: cell-based, rat
From the text: FIG. 29. Effects of Oxidative Stress on KYC Thiylation of RLMVEC Proteins. (A) Streptavidin affinity blot of KYC thiylated proteins from cell lysates prepared from RLMVEC cultures treated with B-KYC (baseline), B-KYC+MPO+H2O2 (MPO-dependent), and B-KYC+H2O2 (H2O2-dependent). (B) Immunoblot for Nrf2 in RLMVEC cultures treated as described in A. (C) Immunoblot for Keap1 in RLMVEC cultures treated as described in A. (D) Immunoblot for HMGB1 in RLMVEC cultures treated as described in A.(E) Immunoblot for β-Actin in RLMVEC cultures treated as described in A.(F) Bar chart showing relative levels of KYC thiylation, Nrf2, Keap1, and HMGB1 as a function of β-Actin (n=2, *=p<0.05, statistical analysis was preformed by ANOVA with appropriate post hoc tests).
FIG. 31. MPO Oxidation of KYC Increases KYC Thiylation of Extracellular HMGB1. […] This conclusion is based on the relative levels of KYC thiylated HMGB1 in panel A vs. KYC thiylated HMGB1 as a function of HMGB1 protein in conditioned media vs. RLMVEC cell lysates.
Rat lung microvascular endothelial cells (RLMVEC) from neonatal Sprague-Dawley rats (RN-6011) and rat endothelial growth medium (EGM, M1266SF) were from Cell Biologics (Chicago, Ill.). Amicon®Ultra-4 centrifugal concentrators with 3K cut-off (UFC800324) were from Merck Millipore Ltd (Carrigtwohill, Ireland). PierceTM Streptavidin (#88816), Protein G (#88848), Protein A Magnetic Beads (#88845), PierceTM ECL Western Blotting Substrate (#32106), and SuperSignalTM West Femto Maximum Sensitivity Substrate (#34095) were from Thermo Fisher Scientific (Waltham, MA). Rabbit antibodies for myeloperoxidase heavy chain (MPO, sc-33596) and TLR4 (sc-10741) were from Santa Cruz Biotechnology (Dallas, Texas). Rabbit antibody for Cl-Tyr (HP5002) was from Hycult Biotech (Plymouth Meeting, PA). The chicken antibody for HMGB1 (326052233) was from SHINO-TEST Corporation (Kanagawa, Japan). Rabbit antibody for RAGE (GTX23611) was from GeneTex (Irvine, CA). Mouse antibodies for PECAM-1/CD31 (ab24590), for 8-OH-dG (ab48508), and for rat endothelial cell antigen-1 (RECA-1, ab9774) were from Abcam (Cambridge, MA). Rabbit antibody for Cox1 (sc-7950) and Cox2 (sc-7951) were from Santa Cruz Biotechnology. Mouse (ab190377) and rabbit (ab77302b) antibodies for HMGB1, and streptavidin-HRP (ab7403) were from Abcam (Cambridge, Mass.). Rabbit antibody for acetylated-HMGB1 (OASG03545) was from Aviva System Biology (San Diego, Calif.). Rabbit antibodies for Nrf2 (sc-722) and TLR4 (sc-30002) were from Santa Cruz Biotechnology (Dallas, Tex.). Rabbit antibody against Keap1 (ABS97) and mouse antibody for β-actin (A2228) were from Millipore-Sigma (St. Louis, Mo.). Rabbit antibody for cysteine sulfonyl (ADI-OSA-820) was from Enzo Life Sciences (Farmingdale, N.Y.). Mouse antibody for glutathionylated proteins (D8) and all other chemicals were from Sigma-Aldrich (St. Louis, Mo.). All antibodies were certified either by the manufacturer or were used previously and certified by the authors, as was the case for the anti-HMGB1 antibody.
Effects of Oxidative Stress on KYC Thiylation on Endothelial Cell Proteins in RLMVEC Cultures: To determine the effects of oxidative stress on KYC thiylation, RLMVEC cultures were treated with B-KYC to follow KYC thiylation with streptavidin-affinity blotting as outlined in Methods. Three different levels of oxidative stress were used to determine the effects of oxidative stress on KYC thiylation of endothelial cell proteins: media alone (baseline); media containing MPO+H2O2 (MPO-dependent); and media containing H2O2 alone (H2O2-dependent) (FIG. 29A). KYC thiylation of RLMVEC proteins at baseline was low (FIG. 29A, first two lanes).

inhibitory properties (IC50) KVC versus KVVC (MPO) | Substance | fluorescent band density of B-KYC thiylated HMGB1 and MPO (HMGB1) | KYC thiylation of RLMVEC proteins (RLMVEC; H2O2-dependent (media containing H2O2 alone)) | KYC thiylation of RLMVEC proteins (RLMVEC; MPO-dependent (media containing MPO+H2O2)) | KYC thiylation of RLMVEC proteins (RLMVEC; baseline (media alone))
improvement of inhibitory properties | Ac-KVVC-amide [N-acetylated, C-amidated AA(n) peptide, KVC with an added amino acid] |  |  |  | 
 | biotin-aminohexanoyl-N-[Ahx]-KYC-amide [B-KYC] | decreased in the sample treated with dithiothreitol | more than observed at baseline, but not as high as MPO-dependent B-KYC thiylation | markedly increased | low
